Columns and labels:
[1] = Absorption and fluorescence spectra of probes (optical properties); format: physicochemical; settings: for Fluorescence quantum yield: ICG in DMSO as standard
[2] = system: 4T1 mouse breast cancer lung metastasis; settings: 2 nmol intravenous, 4 h
Source text: (§1) This test example studied the imaging manifestations of PEG-Cy7-RP-RGD in different tumor models. A U87 human glioma mouse in-situ model, an SKOV3 human ovarian cancer in-situ model, a 4T1 mouse breast cancer lung metastasis model and an MB-49 human bladder cancer lung metastasis model were respectively set up.
(§2) A 4T1 mouse breast cancer lung metastasis model and an MB-49 mouse bladder cancer lung metastasis model were respectively set up in FIG. 11.

[3] = system: MB-49 human bladder cancer lung metastasis; settings: 2 nmol intravenous, 4 h
Source text: as §1, §2

[4] = system: U87 human glioma; settings: 2 nmol intravenous, 4 h
Source text: as §1

[5] = system: MB-49 human bladder cancer cells; experiment: Fluorescence imaging in mouse subcutaneous tumor model of MB-49 bladder cancer cells; format: in vivo, Balb/c nude mouse
Procedure: A mouse subcutaneous tumor model of human bladder cancer cells was set up by injecting MB-49 human bladder cancer cells in Balb/c nude mouse legs. After the tumor grew to a proper size, four fluorescent probes were respectively intravenously injected (2 nmol of probe was injected for each mouse), and then fluorescence imaging was performed on mice at different time points after injection.

[6] = system: SKOV3 human ovarian cancer; settings: 2 nmol intravenous, 4 h
Source text: as §1
A […] human ovarian cancer mouse in-situ tumor model was set up in FIG. 10.

[7] = system: tumors; experiment: The above tests repeated on probes of examples 2-5 (targeted fluorescence imaging of tumors); settings: in vivo
Source text: (§3) The inventors conducted the above test to the fluorescent probes prepared in examples 2-5.

[8] = target: T1, PSMA (Homo sapiens, UniProt Q04609); experiment: PSMA-targeted prostate cancer fluorescence imaging; settings: in vivo
T1 construct: highly expressed PSMA in prostate cancer; endogenous in cells
T1 sequence (Q04609 whole entry, species assumed): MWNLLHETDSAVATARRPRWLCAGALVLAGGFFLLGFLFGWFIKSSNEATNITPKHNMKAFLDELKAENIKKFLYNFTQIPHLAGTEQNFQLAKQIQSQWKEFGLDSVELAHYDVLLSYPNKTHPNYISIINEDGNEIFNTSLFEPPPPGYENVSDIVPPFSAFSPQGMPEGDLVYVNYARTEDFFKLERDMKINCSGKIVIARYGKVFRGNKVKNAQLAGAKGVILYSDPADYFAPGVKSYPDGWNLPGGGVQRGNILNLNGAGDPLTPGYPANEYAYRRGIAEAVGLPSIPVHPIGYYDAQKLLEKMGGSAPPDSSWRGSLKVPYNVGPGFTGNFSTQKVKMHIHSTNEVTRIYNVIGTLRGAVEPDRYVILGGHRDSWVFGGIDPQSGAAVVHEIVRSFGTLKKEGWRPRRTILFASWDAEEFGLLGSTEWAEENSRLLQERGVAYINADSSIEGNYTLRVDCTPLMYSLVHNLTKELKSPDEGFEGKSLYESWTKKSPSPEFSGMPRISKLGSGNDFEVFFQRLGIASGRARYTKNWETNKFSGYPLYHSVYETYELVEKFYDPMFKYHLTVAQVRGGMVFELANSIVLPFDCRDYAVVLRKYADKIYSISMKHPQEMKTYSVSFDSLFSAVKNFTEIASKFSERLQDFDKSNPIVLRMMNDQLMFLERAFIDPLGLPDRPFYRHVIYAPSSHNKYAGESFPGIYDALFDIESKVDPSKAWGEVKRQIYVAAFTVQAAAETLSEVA
Source text: as §3

With `COCCOCCOCCN1/C(=C/C=C2\CCCC(/C=C/C3=[N+](CCOCCOCCOC)c4ccc(S(=O)(=O)O)cc4C3(C)C)=C2Oc2ccc(CCC(=O)O)cc2)C(C)(C)c2cc(S(=O)(=O)[O-])ccc21` [PEG-Cy7-COOH] the “Fluorescent brightness compared with PEG-Cy7-Cl” value ([1]; PBS) was “doubled”, the “Increase of fluorescence quantum yield compared with PEG-Cy7-Cl” value ([1]; PBS) was 3.7% and the Absorption peak ([1]; PBS buffer (pH = 7.4)) was 772 nm. For the same molecule, the Emission peak ([1]; PBS buffer (pH = 7.4)) was 794 nm, the “Luminance (molar extinction coefficient × fluorescence quantum yield)” value (“Luminance” for short) ([1]; PBS buffer (pH = 7.4)) was 19800 and the Molar extinction coefficient ([1]; PBS buffer (pH = 7.4)) was 228000 M⁻¹ cm⁻¹. It also gave a Stokes shift ([1]; PBS buffer (pH = 7.4)) of 22 nm and a Fluorescence quantum yield ([1]; PBS buffer (pH = 7.4)) of 8.7%.

In the case of `COCCOCCOCCN1/C(=C/C=C2\CCCC(/C=C/C3=[N+](CCOCCOCCOC)c4ccc(S(=O)(=O)O)cc4C3(C)C)=C2Oc2ccc(CCC(=O)N[C@@H](CCCNC(=N)N)C(=O)NCCOCCOCCOCCOCCC(=O)NCCCCC3NC(=O)[C@@H](Cc4ccc(O)cc4)NC(=O)[C@H](CC(=O)O)NC(=O)CNC(=O)[C@H](CCCNC(=N)N)NC3=O)cc2)C(C)(C)c2cc(S(=O)(=O)[O-])ccc21` (stereo partly drawn) [PEG-Cy7-RP-RGD], the Absorption peak ([1]; 100% Fetal bovine serum) is reported as 777 nm, the Emission peak ([1]; 100% Fetal bovine serum) is reported as 795 nm and the “Luminance” value ([1]; 100% Fetal bovine serum) is reported as 20700. The Molar extinction coefficient ([1]; 100% Fetal bovine serum) was 184000 M⁻¹ cm⁻¹, the Stokes shift ([1]; 100% Fetal bovine serum) was 18 nm and the Fluorescence quantum yield ([1]; 100% Fetal bovine serum) was 11.2%. The “Change of fluorescence property in 100% fetal bovine serum versus PBS” value ([1]; 100% fetal bovine serum vs PBS) was “did not obviously change”, the Absorption peak ([1]; PBS buffer (pH = 7.4)) was 776 nm and the Emission peak ([1]; PBS buffer (pH = 7.4)) was 794 nm. For the same molecule, the “Luminance” value ([1]; PBS buffer (pH = 7.4)) was 19300, the Molar extinction coefficient ([1]; PBS buffer (pH = 7.4)) was 174000 M⁻¹ cm⁻¹ and the Stokes shift ([1]; PBS buffer (pH = 7.4)) was 18 nm. The Fluorescence quantum yield ([1]; PBS buffer (pH = 7.4)) was 11.1%, the “Fluorescence signal at tumor site” value [2] was “strong fluorescence signal” and the “Signal-to-noise ratio of small lung metastasis lesion” value [2] was “about 4”. For the same molecule, the “Fluorescence signal at tumor site” value [3] was “strong fluorescence signal”, the “Signal-to-noise ratio of small lung metastasis lesion” value [3] was “about 4” and the “Fluorescence signal at tumor site” value [4] was “strong fluorescence signal”. The “Signal-to-noise ratio at tumor site” value ([4]; head skin cut) was “up to 6.3”, the “TBR (tumor signal-to-noise ratio) relative to the other three probes” value ([5]; 24 h after intravenous injection, 2 nmol per mouse) was “twice or more” and the “Tissue background (non-specific) signal in normal tissue” value ([5]; in vivo imaging) was “ultra-low”. For the same molecule, the “Tumor signal-to-noise ratio (TBR), compared with the other probes” value ([5]; intravenous, 2 nmol per mouse) was “obviously improved”, the “Fluorescence signal at tumor site” value [6] was “strong fluorescence signal” and the “Signal-to-noise ratio at ovarian tumor site” value [6] was “about 4.0”.

With `COCCOCCOCCN1/C(=C/C=C2\CCCC(/C=C/c3[se]c4cc(S(=O)(=O)O)ccc4[n+]3CCOCCOCCOC)=C2c2ccc(CCC(=O)N[C@@H](CCNC(=N)N)C(=O)NCCOCCOCCOCCOCCC(=O)NCCCCC3NC(=O)[C@@H](Cc4ccc(O)cc4)NC(=O)[C@H](CC(=O)O)NC(=O)CNC(=O)[C@H](CCCNC(=N)N)NC3=O)cc2)[Se]c2cc(S(=O)(=O)O)ccc21` (stereo partly drawn) [example 3] the “Fluorescence property compared to example 1” value [1] was “comparable to that in example 1” and the “Usability for targeted fluorescence imaging of tumors” value [7] was “can be used for targeted fluorescence imaging of tumors”.

With `COCCOCCOCCN1/C(=C/C=C2\CCCC(/C=C/C3=[N+](CCOCCOCCOC)c4ccc(S(=O)(=O)O)cc4C3(C)C)=C2Oc2ccc(CCC(=O)N[C@@H](CCCNC(=N)N)C(=O)NCCOCCOCCOCCOCCC(=O)NCCCC[C@H](NC(=O)NC(CCC(=O)O)C(=O)O)C(=O)O)cc2)C(C)(C)c2cc(S(=O)(=O)[O-])ccc21` (stereo partly drawn) [example 5] the “Binding to PSMA in prostate cancer” value [8] was “can bind to highly expressed PSMA in prostate cancer” and the “Prostate cancer-specific fluorescence imaging” value [8] was “achieving prostate cancer-specific fluorescence imaging”.
